Here are results for five molecules from article PMC3391261, “Characteristic Features of Kynurenine Aminotransferase Allosterically Regulated by (Alpha)-Ketoglutarate in Cooperation with Kynurenine” (PLoS ONE, 2012).

Read-outs that look alike come from different tables or passages of the source.

Series [1] concerns the target T1, PhKAT (Pyrococcus horikoshii, UniProt O57946). Put plainly: Spectrophotometric titration of PhKAT with PLP (absorbance change at 360 nm, 2-site binding model with hill slopes). Further details: species or system Pyrococcus horikoshii OT3. The conditions noted are these: 25°C. As for the experimental part: PhKAT was added to a 20 µM (final concentration) PLP solution in a final volume of 500 µL of 50 mM HEPES–NaOH buffer (pH 7.5) containing 100 mM NaCl. Titration of PhKAT with PLP was monitored by absorption spectroscopy. Aliquots of PLP (1, 2, 4, 8, 16, 32, and 64 µM) were added to the cuvette containing PhKAT at 25°C. Spectra were recorded after the addition of PLP, and the PLP-binding constant (K d) was calculated from the difference in absorbance at 360 nm, and the PLP-binding curve for PhKAT was obtained by the 2-site binding model with variable slopes using prism5.

Series [2] deals with T1, PhKAT. Put plainly: Isothermal titration calorimetry for cofactor and substrate binding. Further details: species or system Pyrococcus horikoshii OT3. The conditions noted are these: PLP binding to PhKAT; judged from shape of binding curve. From the text: To avoid air bubbles, we degassed solutions under vacuum before use. […] Power peaks were integrated, and the resultant reaction […] were plotted against the molar cofactor and/or substrate/protein ratios and fitted using the “sequential binding sites” model according to the manufacturer's instructions with origin version 5.0 (MicroCal Software), thus yielding the dissociation constant K d.
A general note: ITC needs no label: the signal is the heat of the interaction.

Series [3] has as its target T1, PhKAT. Put plainly: KAT transaminase kinetics, KYNA production from KYN monitored at 332 nm. The conditions noted are these: 100 µM KYN; keto acid as amino acceptor. As for the experimental part: KYNA production was monitored spectrophotometrically using a U-2810 UV–Vis spectrophotometer (Hitachi).
The transaminase abilities of KAT were assayed by measuring the rate of the KYNA production. […] KYNA production was monitored by the increase in A332 at 25°C. The quantities of KYNA were determined spectroscopically with an extinction coefficient of 9.8 mM^−1⋅cm^−1 at 332 nm.

Substrate in series [4]: CCC(=O)C(=O)O
Put plainly: purified protein, by the assay type. The conditions noted are these: other: 100 µM KYN; keto acid as amino acceptor; pH 7.5; 25.0 °C.
Protocol: (§1) PLP-dependent KAT activity was assayed in 500 µL of 50 mM HEPES–NaOH buffer (pH 7.5) containing 100 mM NaCl, 10 µM PhKAT, 15 µM PLP, 20 µM KYN, and 64 µM 2OG. Assays were performed at room temperature (25°C), and the reaction was initiated by the addition of 2OG. KYNA production was monitored spectrophotometrically using a U-2810 UV–Vis spectrophotometer (Hitachi).
(§2) The transaminase abilities of KAT were assayed by measuring the rate of the KYNA production. In a total volume of 500 µL, the reaction mixture contained 10 µM PhKAT (dimer: 5 µM); 12 µM PLP; 0.08, 0.1, 0.4, 0.8, 1, 1.2, 2, 4, 6, 8, 12, 16, 20 and 24 µM 2OG; 0.02, 0.08, 0.1, 0.4, 0.8, 1, 1.2, 2, 4, 6, 8, 12, 16, 20 and 24 µM OXA; 50, or 100 µM KYN; 50 mM HEPES–NaOH buffer (pH 7.5); 100 mM NaCl; 0.4, 0.8, 1, 4, 8, 12 and 16 µM α-KMB, and/or 0.4, 0.8, 1, 4, 8, 12, 16 and 20 µM α-KBA. KYNA production was monitored by the increase in A332 at 25°C. The quantities of KYNA were determined spectroscopically with an extinction coefficient of 9.8 mM^−1⋅cm^−1 at 332 nm.

Substrate in series [5]: CSCCC(=O)C(=O)O
Put plainly: purified protein, by the assay type. The conditions noted are these: other: 100 µM KYN; keto acid as amino acceptor; pH 7.5; 25.0 °C.
Protocol: as §1, §2

Series [6] concerns the molecule itself. Put plainly: crystal structure; co-crystals of PhKAT with PLP (1:1), PLP and 2OG (1:1:1 or 1:1:2), sitting-drop vapor diffusion at 4°C; space group C2, two chains in the asymmetric unit.

In the case of `Cc1ncc(COP(=O)(O)O)c(C=O)c1O` [PLP, Pyridoxal phosphate], the Kd at PhKAT [1] (10 µM PhKAT, pH 7.5, read-out: Kd1 (dissociation constant for PLP, first binding site)) came out at 25.5 µM; at PhKAT [1] (10 µM PhKAT, pH 7.5, read-out: Kd2 (dissociation constant for PLP, second binding site)), 1.77 µM; at PhKAT [1] (20 µM PhKAT, pH 7.5, read-out: Kd1 (dissociation constant for PLP, first binding site)) it was 9.65 µM; on PhKAT [1] (20 µM PhKAT, pH 7.5, read-out: Kd2 (dissociation constant for PLP, second binding site)), 1.92 µM. Moreover, the “dissociation constant (apparent) of second binding site in PhKAT” value at PhKAT [2] was “approximately femtomole order”.
Consider `CCC(=O)C(=O)O` [α-KBA, 2-ketobutyric acid], for which, at PhKAT [3], the “H-value (allosteric sigmoidal model)” value is listed as 1.79.
On the same count and under the same terms, for `CSCCC(=O)C(=O)O` [α-KMB, α-keto-γ-(methylthio) butyric acid] the value was 3.57.

B1: PhKAT (Pyrococcus horikoshii OT3) (protein)
chain: MHEDVQLNIYVHSQEGIGMEENIKSMLGDVERFFSKKALEMRASEVRELLKLVETSDIISLAGGLPNPKTFPKEIIRDILVEIMEKYADKALQYGTTKGFTPLRETLMKWLGKRYGISQDNDIMITSGSQQALDLIGRVFLNPGDIVVVEAPTYLAALQAFNFYEPQYIQIPLDDEGMKVEILEEKLKELKSQGKKVKVVYTVPTFQNPAGVTMNEDRRKYLLELASEYDFIVVEDDPYGELRYSGNPEKKIKALDNEGRVIYLGTFSKILAPGFRIGWMVGDPGIIRKMEIAKQSTDLCTNVFGQVVAWRYVDGGYLEKHIPEIRKFYKPRRDAMLEALEEFMPEGVKWTKPEGGMFIWVTLPDGIDSKKMLERAIKKGVAYVPGEAFYAHRDVKNTMRLNFTYVDEDKIMEGIKRLAETIKEELKA
Regarding B1, the Km is given as 1.73 µM in series [4] and 2.41 µM in series [5].

B2: Kynurenine aminotransferase from Pyrococcus horikoshii OT3 (enzyme, UniProt O57946 1-428, looked up)
chain: B1 chain
modifications: PLP in a Schiff-base link with Lys269
notes: Kynurenine aminotransferase (PhKAT) of Pyrococcus horikoshii OT3, 428 residues; residues 25-428 seen in the crystal structures, residues 1-24 and the N-terminal His-tag disordered; also called PhKAT; KAT; source: E. coli BL21-CodonPlus (DE3), pET28a-PhKAT, purified (His TALON cartridge); not shown: His6, N-terminal, kept
B2: the “stoichiometry N” value in series [6] turned out to be 2.

For orientation: Km means the substrate concentration at which the rate is half of its maximum. For orientation: stoichiometry N means the number of molecules, sites or subunits per partner or assembly.
